# Assay: Evaluation of solubility in organic solvent (visual)
# Assay type: physicochemical
# Set-up: key: A (good): The compound dissolved completely at room temperature.; B (poor): Undissolved compound was observed at room temperature
# Details: eight parts by mass in 100 parts by mass mixed solvent (19 mass % THF, 38 mass % TL, 43 mass % 2-PrOH), 25° C., stirred 10 minutes
# Description: To 100 parts by mass of a mixed solvent of tetrahydrofuran (appropriately abbreviated to as THF below), toluene (appropriately abbreviated to as TL below) and 2-propanol (appropriately abbreviated to as 2-PrOH below) (19 mass % THF, 38 mass % TL and 43 mass % 2-PrOH, 25° C.), eight parts by mass of the compound 1 or 2 or the comparative compound 1 was added, and without heating or cooling, the mixtures were stirred with a rotor for 10 minutes. Then, the dissolution states were observed visually, and the solubility was evaluated by the following criteria.
row,Compound,Solubility
1,C=C(C)C(=O)OCC(COC(=O)C(=C)C)OC(=O)CCC(=O)Oc1cccc(C(C)C2=C/C(=C3/C=C(C(C)c4cccc(OC(=O)CCC(=O)OC(COC(=O)C(=C)C)COC(=O)C(=C)C)c4)C(=O)c4ccccc43)c3ccccc3C2=O)c1 (stereo not drawn) [Compound 2],A
2,C=CC(=O)OCCOC(=O)CCC(=O)Oc1cccc(C(C)C2=C/C(=C3/C=C(C(C)c4cccc(OC(=O)CCC(=O)OCCOC(=O)C=C)c4)C(=O)c4ccccc43)c3ccccc3C2=O)c1 (stereo not drawn) [Compound 1],A
3,"CCC(C)(C)C1=C/C(=C2/C=C(C(C)(C)CC)C(=O)c3ccccc32)c2ccccc2C1=O [Comparative Compound 1, reference compound]",B

# — patent US20240353769A1, “ELECTROPHOTOGRAPHIC PHOTORECEPTOR, COATING LIQUID FOR FORMING ELECTROPHOTOGRAPHIC PHOTORECEPTOR PROTECTIVE LAYER, COMPOUND, ELECTROPHOTOGRAPHIC PHOTORECEPTOR CARTRIDGE, AND IMAGE FORMATION DEVICE” (MITSUBISHI CHEMICAL CORPORATION, priority 2021, published 2024)
